# Experimental data: patent publication US20230069963A1, “PYRAZOLO[1,5-A]PYRIMIDINE MACROCYCLIC COMPOUND” (priority 2018, published 2023)
# Counter-ions that a name gives are not always drawn.
# System: RSV ATCC VR-1540 (A2)
# Test: microbe, parasite or virus in culture
# Type: cell-based
# Conditions: Hep2 cells, incubated for 4 days, CPE detected with XTT assay (absorbance 450 nm); read-out: EC50 (nmol/L) against RSV A2 strain
row,Compound,EC50 [nmol/L]
1,"(18aS)-2-fluoro-13-(cis-3-hydroxycyclobutyl)-11-methyl-8,9,10,11,19,20,21,22-octahydro-l 8aH,24H-18,15-(metheno)pyrido[2,1-l]pyrimido[6,1-h][1,4,7,9,10,13]benzoxapentaazacyclohexadecine-7,24(6H)-dione [Example 109]",1.14

# Same assay, conditions: human respiratory syncytial virus, HEp-2, 96 h; Hep2 cells, incubated for 4 days, CPE detected with XTT assay (absorbance 450 nm); read-out: EC50 (nmol/L) against RSV A2 strain
row,Compound,EC50 [nmol/L]
1,"Cc1ccc2c(c1)C(=O)N1CCCC[C@H]1c1cc3nc(NCCN)cc(n3n1)N(C)CCN(S(C)(=O)=O)CCO2 [Example 182, (18aS)-13-[(2-aminoethyl)amino]-8-(methanesulfonyl)-2,11-dimethyl-6,7,8,9,10,11,19,20,21,22-decahydro-18aH,24H-18,15-(metheno)pyrido[2,1-l]pyrimido[6,1-h][1,4,7,9,10,13]benzoxapentaazacyclohexadecin-24-one hydrochloride]",14.2
2,"CC1COc2ccc(F)cc2C(=O)N2CCCCC2c2cc3nc(N4CC(N)C4)cc(n3n2)N(C)CCN1 [Example 145, (18aS)-13-(3-aminoazetidin-1-yl)-2-fluoro-7,11-dimethyl-6,7,8,9,10,11,19,20,21,22-decahydro-18aH,24H-18,15-(metheno)pyrido[2,1-l]pyrimido[6,1-h][1,4,7,9,10,13]benzoxapentaazacyclohexadecin-24-one]",17.5
3,"CN1CCNC(C(F)(F)F)COc2ccc(Cl)cc2C(=O)N2CCCCC2c2cc3nc(N4CC(N)C4)cc1n3n2 (single isomer, unassigned) [Example 338]",2.37
4,"CN1CCOc2ccc(Cl)cc2C(=O)N2CCCC[C@H]2c2cc3nc(NC4CNC4)cc(n3n2)N(C)CC1 [Example 161, (18aS)-13-[(azetidin-3-yl)amino]-2-chloro-8,11-dimethyl-6,7,8,9,10,11,19,20,21,22-decahydro-18aH,24H-18,15-(metheno)pyrido[2,1-l]pyrimido[6,1-h][1,4,7,9,10,13]benzoxapentaazacyclohexadecin-24-one]",19.6
5,"CCN1CCN(C)c2cc(N3CC(N)C3)nc3cc(nn23)[C@@H]2CCCCN2C(=O)c2cc(F)ccc2OCC1=O [Example 9, (18aS)-13-(3-aminoazetidin-1-yl)-8-ethyl-2-fluoro-11-methyl-8,9,10,11,19,20,21,22-octahydro-18aH,24H-18,15-(metheno)pyrido[2,1-l]pyrimido[6,1-h][1,4,7,9,10,13]benzoxapentaazacyclohexadecine-7,24(6H)-dione]",6.34
6,"NC1CN(c2cc3n4nc(cc4n2)[C@@H]2CCCCN2C(=O)c2cc(F)ccc2OCC(=O)NCCN3C2CC2)C1 [Example 14, (18aS)-13-(3-aminoazetidin-1-yl)-11-cyclopropyl-2-fluoro-8,9,10,11,19,20,21,22-octahydro-18aH,24H-18,15-(metheno)pyrido[2,1-l]pyrimido[6,1-h][1,4,7,9,10,13]benzoxapentaazacyclohexadecine-7,24(6H)-dione]",2.31
7,"O=C1COc2ccc(F)cc2C(=O)N2CCCC[C@H]2c2cc3nc(C4CC4)cc(n3n2)CCCN1 [Example 121, (18aS)-13-cyclopropyl-2-fluoro-8,9,10,11,19,20,21,22-octahydro-18aH,24H-18,15-(metheno)pyrido[2,1-l]pyrimido[6,1-h][1,4,9,10,13]benzoxatemazacyclohexadecine-7,24(6H)-dione]",11
8,"Cc1c(N2CCC(N)C2)nc2cc3nn2c1NCCOCCOc1ccc(Cl)cc1C(=O)N1CCCCC31 [Example 299, (18aS)-13-[(3S)-3-aminopyrrolidin-1-yl]-2-chloro-12-methyl-6,7,10,11,19,20,21,22-octahydro-9H,18aH,24H-18,15-(metheno)pyrido[2,1-l]pyrimido[6,1-h][1,4,7,9,10,13]benzodioxatetraazacyclohexadecin-24-one]",9.69
9,"CN1CCNCCOc2ccc(F)cc2C(=O)N2CCCC[C@H]2c2cc3nc(N4CCC4)c(F)c1n3n2 [Example 198, (18aS)-13-(azetidin-1-yl)-2,12-difluoro-11-methyl-6,7,8,9,10,11,19,20,21,22-decahydro-18aH,24H-18,15-(metheno)pyrido[2,1-l]pyrimido[6,1-h][1,4,7,9,10,13]benzoxapentaazacyclohexadecin-24-one]",2.82
10,"CN1CCNC(=O)COc2ccc(Cl)cc2C(=O)N2CCCCC2c2cc3nc(C4CC(O)C4)cc1n3n2 [Example 111, (18aS)-2-chloro-13-(cis-3-hydroxycyclobutyl)-11-methyl-8,9,10,11,19,20,21,22-octahydro-18aH,24H-18,15-(metheno)pyrido[2,1-l]pyrimido[6,1-h][1,4,7,9,10,13]benzoxapentaazacyclohexadecine-7,24(6H)-dione]",0.448
11,"CC[C@H]1c2cc3nc(OC)c(C)c(n3n2)N(C)CCCCNc2ccc(C)cc2C(=O)N1C [Example 222a, (17S)-17-ethyl-3-methoxy-4,5,13,16-tetramethyl-5,6,7,8,9,10,16,17-octahydro-15H-18,1-(metheno)pyrimido[6,1-g][1,6,8,9,12]benzopentaazacyclopentadecin-15-one]",7.17
12,"CN1CCCCOc2cccc(F)c2C(=O)N2CCCCC2c2cc3nc(N4CCC(N)C4)cc1n3n2 [Example 249, (23aS)-18-[(3S)-3-aminopyrrolidin-1-yl]-7-fluoro-16-methyl-1,3,4,13,14,15,16,23a-octahydro-2H,6H,12H-23,20-(metheno)pyrido[2,1-k]pyrimido[6,1-g][1,6,8,9,12]benzoxatectraazacyclopentadecin-6-one]",2.7
13,"CN1CCNC(=O)COc2ccc(C(C)(F)F)cc2C(=O)N2CCCC[C@H]2c2cc3nc(N4CCC4)cc1n3n2 [Example 54, (18aS)-13-(azetidin-1-yl)-2-(1,1-difluoroethyl)-11-methyl-8,9,10,11,19,20,21,22-octahydro-18aH,24H-18,15-(metheno)pyrido[2,1-l]pyrimido[6,1-h][1,4,7,9,10,13]benzoxapentaazacyclohexadecine-7,24(6H)-dione]",3.2
14,"Cc1c(CCCN)nc2cc3nn2c1N(C)CCNC(=O)COc1ccc(Cl)cc1C(=O)N1CCCC[C@@H]31 [Example 75, (18aS)-13-(3-aminopropyl)-2-chloro-11,12-dimethyl-8,9,10,11,19,20,21,22-octahydro-18aH, 24H-18,15-(metheno)pyrido[2,1-l]pyrimido[6,1-h][1,4,7,9,10,13]benzoxapentaazacyclohexadecine-7,24 (6H)-dione]",1

# System: F protein D486N mutant strain of RSV A2 strain
# Test: not given
# Type: cell-based, respiratory syncytial virus (RSV)
# Conditions: Hep2 cells, incubated for 4 days, CPE detected with XTT assay (absorbance 450 nm); read-out: EC50 (nmol/L) against F protein D486N mutant strain of RSV A2 strain
row,Compound,EC50 [nmol/L]
1,"CN1CC(=O)NCCOc2ccc(F)cc2C(=O)N2CCCC[C@H]2c2cc3nc(N4CC(N)C4)cc1n3n2 [Example 37, (18aS)-13-(3-aminoazetidin-1-yl)-2-fluoro-1-methyl-7,8,10,11,19,20,21,22-octahydro-8aH,24H-18,15-(metheno)pyrido[2,1-l]pyrimido[6,1-h][1,4,7,9,10,13]benzoxapentaazacyclohexadecine-9,24(6H)-dione]",10.1
2,"CN1CCNC(=O)COc2ccc(F)cc2C(=O)N2CCCC[C@H]2c2cc3nc(C4CC4)cc1n3n2 [Example 90, (18aS)-13-cyclopropyl-2-fluoro-11-methyl-8,9,10,11,19,20,21,22-octahydro-18aH,24H-18,15-(metheno)pyrido[2,1-l]pyrimido[6,1-h][1,4,7,9,10,13]benzoxapentaazacyclohexadecine-7,24(6H)-dione]",2.8
3,"CN1CCNC(=O)COc2ccc(Cl)cc2C(=O)N2CCCCC2c2cc3nc(C4CC(O)C4)cc1n3n2 [Example 112, (18aS)-2-chloro-13-(trans-3-hydroxycyclobutyl)-11-methyl-8,9,10,11,19,20,21,22-octahydro-18aH,24H-18,15-(metheno)pyrido[2,1-l]pyrimido[6,1-h][1,4,7,9,10,13]benzoxapentaazacyclohexadecine-7,24(6H)-dione]",0.704
4,"Cc1ccc2c(c1)C(=O)N1CCCCC1c1cc3nc(C4CC4)cc(n3n1)C(C)CCNC(=O)CO2 (single isomer, unassigned) [Example 126a]",2.05
5,CN1CCNC(=O)COc2ccc(Cl)cc2C(=O)N2CCCC[C@H]2c2cc3nc(N4CC(O)C4)cc1n3n2 [Example 39],0.867
6,"[2H]C([2H])([2H])c1ccc2c(c1)C(=O)N1CCCC[C@H]1c1cc3nc(N4CC(O)C4)cc(n3n1)N(C)CCNC(=O)CO2 [Example 53, (18aS)-13-(3-hydroxyazetidin-1-yl)-1-methyl-2-trideuteriomethyl-8,9,10,11,19,20,21,22-octahydro-18aH,24H-18,15-(metheno)pyrido[2,1-l]pyrimido[6,1-h][1,4,7,9,10,13]benzoxapentaazacyclohexadecine-7,24(6H)-dione]",1.05
7,"CN1CCNC(C(F)(F)F)COc2ccc(Cl)cc2C(=O)N2CCCCC2c2cc3nc(N4CC(N)C4)cc1n3n2 (single isomer, unassigned) [Example 339]",4.11
8,"Cc1ccc2c(c1)C(=O)N1CCCCC1c1cc3nc(N4CC(O)C4)cc(n3n1)N(C)CC(C(F)(F)F)NCCO2 [Example 348, (18aS)-13-(3-hydroxyazetidin-1-yl)-2,11-dimethyl-9-(trifluoromethyl)-6,7,8,9,10,11,19,20,21,22-decahydro-18aH,24H-18,15-(metheno)pyrido[2,1-l]pyrimido[6,1-h][1,4,7,9,10,13]benzoxapentaazacyclohexadecin-24-one]",8.2
9,"(18aS)-13-(trans-3-hydroxycyclobutyl)-11-methyl-2-trideuteriomethyl-8,9,10,11,19,20,21,22-octahydro-18aH,24H-18,15-(metheno)pyrido[2,1-l]pyrimido[6,1-h][1,4,7,9,10,13]benzoxapentaazacyclohexadecine-7,24(6H)-dione [Example 118t]",0.72
10,"CN1CCn2ccnc2COc2ccc(Cl)cc2C(=O)N2CCCC[C@H]2c2cc3nc(N4CC(N)C4)cc1n3n2 [Example 335, (20aS)-15-(3-amninoazetidin-1-yl)-2-chloro-13-methyl-12,13,21,22,23,24-hexahydro-6H,11H, 20aH,26H-20,17-(metheno)imidazo[2,1-c]pyrido[2,1-l]pyrimido[6,1-h][1,4,7,9,10,13]benzoxapentaazacyclohexadecin-26-one]",10.6
